Results published in patent publication US20230312564A1, “AROMATIC RING-LACTAM COMPOUND, PREPARATION METHOD THEREFOR AND USE THEREOF” (SHANGHAI RINGENE BIOPHARMA CO., LTD., priority 2020, published 2023).
Read-outs that look alike come from different tables or passages of the source.

Columns and labels:
Colo-205 cells = assay: Colo-205 tumor cell proliferation, CCK-8, 72 hours; format: cell-based; settings: for IC50: Homo sapiens, COLO 205, 72 hours, CCK-8, read-out: Colo-205 IC50; for cell proliferation inhibitory activity (in words): Colo-205
[1] = system: Colo-205 transplanted tumor; assay: Growth inhibition of nude mice Colo-205 transplanted tumor; format: in vivo; settings: 50 mg/kg, qdx21, po
Procedure: The tumor tissue in the vigorous growth phase was cut into about 1.5 mm^3 and inoculated subcutaneously in the right axilla of nude mice under sterile conditions. The diameter of subcutaneous transplanted tumors in nude mice was measured with a vernier caliper, and the mice were randomly divided into groups when the average tumor volume reached about 130 mm^3. The embodiment compounds (injection water containing 1% Tween 80 were configured to a desired concentration for later use) were orally administered daily at a given dose for three consecutive weeks, and the solvent control group was administered with the same amount of solvent. During the whole test, the diameter of transplanted tumor was measured twice a week, and the mice were weighed at the same time. The calculation formula of tumor volume (TV) is expressed as TV=1/2×a×b^2, wherein a and b represent length and width, respectively. The relative tumor volume (RTV) was calculated according to the measurement results, and the calculation formula is RTV=Vt/V0, wherein V0 is the tumor volume measured when administered in separate cages (i.e., d0), and Vt is the tumor volume at the time of each measurement.

p-ERK in MiaPaca-2 = assay: p-ERK feedback upregulation in MiaPaca-2 tumor cells; format: cell-based; settings: acting on MiaPaca-2
ERK1/2 kinase = molecular target: T1, ERK1/2 kinase; assay: ERK1/2 kinase (Carna) inhibitory activity, Caliper mobility shift; format: biochemical; settings: for IC50: read-out: ERK½ IC50
T1 construct: fused on or other part: Carna's ERK products carry a GST tag by vendor knowledge
Procedure, shortened: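 Compounds tested from 10 μM top concentration, 3-fold dilutions to 10 points, in duplicate, in 1× kinase buffer; Caliper mobility-shift readout.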

[2] = Liver microsomal metabolic stability, mouse; format: in vitro ADME; settings: liver microsomes, 0.5 mg/mL microsomes, 1 μM compound, NADPH, read-out: Liver microsomal stability T1/2
Procedure: (§1) The reaction was stopped with tinidazole-containing acetonitrile at 0 min, 5 min, 10 min and 30 min, respectively. After vortexing for 10 min and centrifuging at 15,000 rmp for 10 min, 50 μL of the supernatant was injected into a 96-well plate. The metabolic stability of the compound was calculated by determining the relative reduction of the drug, calculated as half-life T1/2.

[3] = Liver microsomal metabolic stability, rat; format: in vitro ADME; settings: liver microsomes, 0.5 mg/mL microsomes, 1 μM compound, NADPH, read-out: Liver microsomal stability T1/2
Procedure: as §1

CYP2D6 = molecular target: T2, CYP2D6 (Homo sapiens, UniProt P10635); assay: Direct inhibition test (DI test) in human liver microsomes, CYP2D6; format: in vitro ADME
T2 construct: A system containing 100 μL of human liver microsomes; from tissue; host or cells: human liver microsomes
T2 sequence (P10635 whole entry): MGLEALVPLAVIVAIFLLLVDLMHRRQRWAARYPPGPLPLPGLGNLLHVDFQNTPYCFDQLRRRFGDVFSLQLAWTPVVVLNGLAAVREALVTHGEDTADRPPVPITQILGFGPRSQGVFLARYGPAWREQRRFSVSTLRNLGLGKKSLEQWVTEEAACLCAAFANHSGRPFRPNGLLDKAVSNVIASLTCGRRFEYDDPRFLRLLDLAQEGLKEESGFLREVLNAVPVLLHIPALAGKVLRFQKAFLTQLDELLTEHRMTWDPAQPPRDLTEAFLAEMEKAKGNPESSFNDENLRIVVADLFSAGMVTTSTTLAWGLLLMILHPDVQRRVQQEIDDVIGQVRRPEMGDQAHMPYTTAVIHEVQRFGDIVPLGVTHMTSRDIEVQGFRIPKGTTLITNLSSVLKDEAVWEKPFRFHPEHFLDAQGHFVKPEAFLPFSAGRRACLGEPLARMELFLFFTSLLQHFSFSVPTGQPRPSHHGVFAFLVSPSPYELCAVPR
Procedure: (§2) (2) Direct inhibition test (DI test): A system containing 100 μL of human liver microsomes (final concentration of 0.2 mg/mL) was subjected to a direct inhibition incubation, and the system contained NADPH (final concentration of 1 mM), 10 μM compound, positive inhibitor cocktail (10 μM ketoconazole, 10 μM quinidine, 100 μM sulfaphenazole, 10 μM α-naphthoflavone, 1,000 μM tranylcypromine), negative control (BPS of 0.1% DMSO), and mixed probe substrates (10 μM midazolam, 100 μM testosterone, 10 μM dextromethorphan, […], 100 μM phenacetin, 100 μM mephenytoin). After 20 minutes of incubation, the reaction was stopped. The relative activity of the enzyme was calculated by measuring the relative production of metabolites.

[4] = Liver microsomal metabolic stability, dog; format: in vitro ADME; settings: liver microsomes, 0.5 mg/mL microsomes, 1 μM compound, NADPH, read-out: Liver microsomal stability T1/2
Procedure: as §1

CYP2C8 = CYP2C8 (Homo sapiens, UniProt P11712); assay: Direct inhibition test (DI test) in human liver microsomes, CYP2C8; format: in vitro ADME
CYP2C8, sequence (P11712 whole entry): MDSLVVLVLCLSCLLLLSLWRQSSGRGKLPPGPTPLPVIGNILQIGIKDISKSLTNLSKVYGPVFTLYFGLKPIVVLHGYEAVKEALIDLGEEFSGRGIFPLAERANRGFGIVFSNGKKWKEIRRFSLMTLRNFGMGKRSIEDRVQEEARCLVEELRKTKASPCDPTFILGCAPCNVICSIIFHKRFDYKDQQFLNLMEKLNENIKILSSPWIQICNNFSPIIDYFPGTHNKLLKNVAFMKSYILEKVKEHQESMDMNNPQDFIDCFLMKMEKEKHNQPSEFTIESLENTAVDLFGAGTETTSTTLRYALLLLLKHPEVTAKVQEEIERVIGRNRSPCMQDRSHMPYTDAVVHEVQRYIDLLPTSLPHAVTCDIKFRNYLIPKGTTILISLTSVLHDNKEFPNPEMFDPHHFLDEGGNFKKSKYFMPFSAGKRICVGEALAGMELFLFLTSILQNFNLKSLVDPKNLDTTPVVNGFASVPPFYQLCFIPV

[5] = Liver microsomal metabolic stability, human; format: in vitro ADME; settings: liver microsomes, 0.5 mg/mL microsomes, 1 μM compound, NADPH, read-out: Liver microsomal stability T1/2
Procedure: as §1

[6] = Liver microsomal stability, comparisons in words across species; format: in vitro ADME; settings: mouse, rat and human; compared with comparative compound 5
Procedure: as §1

[7] = In-vivo pharmacokinetic parameters in mice; set-up: species or system Balb-c mice
Procedure, shortened: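 Male SD rats or Balb-c mice were dosed intravenously at 1 mg/kg or orally at 5 mg/kg. Jugular-vein plasma was sampled up to 24 h and analysed by LC-MS/MS. Non-compartmental analysis gave AUC, MRT, Cmax, Tmax, T1/2, Vd and oral bioavailability (F).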

CYP3A4 = molecular target: T3, CYP3A4 (Homo sapiens, UniProt P08684); assay: Direct inhibition test (DI test) in human liver microsomes, CYP3A4; format: in vitro ADME
T3 construct: A system containing 100 μL of human liver microsomes; from tissue; host or cells: human liver microsomes
T3 sequence (P08684 whole entry): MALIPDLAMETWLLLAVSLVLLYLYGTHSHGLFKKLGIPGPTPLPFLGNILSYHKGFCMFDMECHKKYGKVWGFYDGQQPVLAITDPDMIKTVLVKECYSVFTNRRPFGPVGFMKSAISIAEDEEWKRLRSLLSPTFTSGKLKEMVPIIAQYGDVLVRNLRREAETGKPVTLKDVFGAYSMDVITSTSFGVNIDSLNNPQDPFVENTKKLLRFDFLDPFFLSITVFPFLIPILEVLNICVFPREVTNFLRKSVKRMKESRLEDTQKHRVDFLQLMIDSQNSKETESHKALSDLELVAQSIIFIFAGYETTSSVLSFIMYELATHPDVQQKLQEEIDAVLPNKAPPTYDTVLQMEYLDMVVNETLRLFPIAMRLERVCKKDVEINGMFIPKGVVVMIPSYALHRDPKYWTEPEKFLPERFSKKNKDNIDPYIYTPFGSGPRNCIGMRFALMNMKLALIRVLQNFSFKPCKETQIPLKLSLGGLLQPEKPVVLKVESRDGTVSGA
Procedure: as §2

CYP1A2 = molecular target: T4, CYP1A2 (Homo sapiens, UniProt P05177); assay: Direct inhibition test (DI test) in human liver microsomes, CYP1A2
T4 sequence (P05177 1-516): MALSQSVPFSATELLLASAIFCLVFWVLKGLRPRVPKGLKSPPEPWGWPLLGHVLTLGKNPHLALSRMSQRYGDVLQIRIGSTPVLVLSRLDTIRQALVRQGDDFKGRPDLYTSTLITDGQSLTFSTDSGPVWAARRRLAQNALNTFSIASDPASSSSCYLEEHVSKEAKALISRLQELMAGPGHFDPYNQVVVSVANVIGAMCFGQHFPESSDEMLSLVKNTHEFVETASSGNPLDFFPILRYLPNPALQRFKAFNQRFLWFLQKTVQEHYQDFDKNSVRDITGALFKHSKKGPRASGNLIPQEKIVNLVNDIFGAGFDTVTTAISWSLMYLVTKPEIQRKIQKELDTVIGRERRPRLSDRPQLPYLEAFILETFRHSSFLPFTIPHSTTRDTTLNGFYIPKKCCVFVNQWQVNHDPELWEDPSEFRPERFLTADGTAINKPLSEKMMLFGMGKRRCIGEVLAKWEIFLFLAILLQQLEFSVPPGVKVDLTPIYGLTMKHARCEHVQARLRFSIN
Procedure: as §2

CYP2C19 = molecular target: T5, CYP2C19 (Homo sapiens, UniProt P33261); assay: Direct inhibition test (DI test) in human liver microsomes, CYP2C19; format: in vitro ADME
T5 construct: A system containing 100 μL of human liver microsomes; from tissue; host or cells: human liver microsomes
T5 sequence (P33261 whole entry): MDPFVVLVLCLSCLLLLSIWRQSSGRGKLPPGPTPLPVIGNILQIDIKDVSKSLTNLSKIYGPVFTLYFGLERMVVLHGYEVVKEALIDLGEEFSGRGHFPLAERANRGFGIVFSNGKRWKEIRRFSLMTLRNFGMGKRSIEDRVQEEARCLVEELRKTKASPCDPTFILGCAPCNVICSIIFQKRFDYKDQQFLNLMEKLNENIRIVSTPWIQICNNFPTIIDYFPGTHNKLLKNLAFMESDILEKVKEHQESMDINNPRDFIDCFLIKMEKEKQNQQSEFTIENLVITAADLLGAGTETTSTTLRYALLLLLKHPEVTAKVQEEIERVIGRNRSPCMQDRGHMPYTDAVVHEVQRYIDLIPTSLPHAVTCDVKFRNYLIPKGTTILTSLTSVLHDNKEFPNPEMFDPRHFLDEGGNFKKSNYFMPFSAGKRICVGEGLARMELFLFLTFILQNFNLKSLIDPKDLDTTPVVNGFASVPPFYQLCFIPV
Procedure: as §2

[8] = male, Balb-c, mouse, plasma, IV, 1 mg/kg
[9] = male, Balb-c, mouse, plasma, PO, 5 mg/kg

Structure (SMILES)	IC50 (Colo-205 cells; numeric values)	cell proliferation inhibitory activity (in words) (Colo-205 cells)	IC50 (CYP2D6)	IC50 at 20 min (CYP2C8)	IC50 (CYP3A4)	IC50 (CYP1A2)	IC50 (CYP2C19)	IC50 (ERK1/2 kinase; numeric values)	further results
CC(C)Nc1cc(-c2c[nH]c(C(=O)N[C@H](CO)c3cccc(Cl)c3)c2)c(Cl)cn1 [BVD523, reference compound]	0.28 µM								T/C [1]: 48.5%; Initial weight (D0) ([1]; D0): 19.8 g; Terminal weight (D21) ([1]; D21): 19.0 g; Initial tumor volume ([1]; initial): 97 ± 14 mm^3; Terminal tumor volume ([1]; terminal): 471 ± 198 mm^3; p-ERK upregulation (in words) (p-ERK in MiaPaca-2): will cause p-ERK feedback upregulation; IC50 (ERK1/2 kinase; class symbols): < 0.01 µM
COc1cc(F)cc([C@@H](CO)NC(=O)[C@@H](C)N2Cc3ccc(-c4nc(NC5CCOCC5)ncc4Cl)nc3C2=O)c1 [Embodiment 18]	0.0333 µM	strong cell proliferation inhibitory activity	> 10 µM	> 10 µM	> 10 µM	> 10 µM	> 10 µM	0.0008 µM	half-life at 1 μM [2]: 32 min; half-life at 1 μM [3]: 16 min; half-life at 1 μM [4]: 32 min; half-life at 1 μM [5]: 12 min; stability in liver microsomes (in words) [6]: significantly improved; F ([7]; PO 5 mg/kg vs IV 1 mg/kg): 25%; AUC(0-inf) [7, 8]: 0.202 µM·h; AUC(0-t) [7, 8]: 0.198 µM·h; MRT inf [7, 8]: 30 min; clearance [7, 8]: 144 mL/min/kg; half-life [7, 8]: 72 min; Vd ([7]; male, Balb-c, mouse, plasma, IV, 1 mg/kg, read-out: Vss): 3.9 L/kg; AUC(0-inf) [7, 9]: 0.257 µM·h; AUC(0-t) [7, 9]: 0.253 µM·h; Cmax [7, 9]: 289 nM; Tmax [7, 9]: 24 min; half-life [7, 9]: 42 min; enzyme inhibitory activity (in words) (ERK1/2 kinase): extremely strong enzyme inhibitory activity
COc1cc(F)cc([C@@H](CO)NC(=O)[C@@H](C)N2Cc3ccc(-c4nc(NC5CCOC5)ncc4F)c(F)c3C2=O)c1 (some centres unmarked) [Embodiment 42]		strong cell proliferation inhibitory activity	> 10 µM	> 10 µM	> 10 µM	> 10 µM	> 10 µM	< 0.001 µM	IC50 (Colo-205 cells; class symbols): < 0.1 µM
COc1cc(F)cc([C@@H](CO)NC(=O)[C@@H](C)N2Cc3ccc(-c4nc(NC5CCC(F)(F)CC5)ncc4F)c(F)c3C2=O)c1 [Embodiment 44]	0.0183 µM	strong cell proliferation inhibitory activity	> 10 µM	> 10 µM	> 10 µM	> 10 µM	> 10 µM		IC50 (ERK1/2 kinase; class symbols): < 0.01 µM
C[C@H](C(=O)N[C@H](CO)c1cccc(F)c1)N1Cc2ccc(-c3nc(NC4CCOCC4)ncc3F)c(F)c2C1=O [Embodiment 46]	0.0162 µM		> 10 µM	> 10 µM	> 10 µM	> 10 µM	> 10 µM	< 0.001 µM	
C[C@H](C(=O)N[C@H](CO)c1ccc(F)c(Cl)c1)N1Cc2ccc(-c3nc(NC4CCOCC4)ncc3F)c(F)c2C1=O [Embodiment 48]	0.0192 µM	strong cell proliferation inhibitory activity	> 10 µM	> 10 µM	> 10 µM	> 10 µM	> 10 µM	< 0.001 µM	
[2H]C([2H])([2H])Oc1cc(F)cc([C@@H](CO)NC(=O)[C@@H](C)N2Cc3ccc(-c4nc(NC5CCOCC5)ncc4F)c(F)c3C2=O)c1 [Embodiment 49]	0.0174 µM	strong cell proliferation inhibitory activity	> 10 µM	> 10 µM	> 10 µM	> 10 µM	> 10 µM	< 0.001 µM	enzyme inhibitory activity (in words) (ERK1/2 kinase): extremely strong enzyme inhibitory activity
